From US10829487B2, “Benzylamino substituted pyridopyrimidinones and derivatives as SOS1 inhibitors” (Boehringer Ingelheim International GmbH, priority 2017, dated 2020)

Key:
[1] = system: ERK phosphorylation in DLD-1 cells (KRAS G13D); assay: ERK Phosphorylation Assay (AlphaLISA SureFire Ultra p-ERK1/2); format: cell-based; details: Homo sapiens, 1 h compound, EGF 50 ng/mL 10 min, read-out: pERK
Procedure: ERK Phosphorylation Assay
Low IC50 values are indicative of high potency of the SOS1 inhibitor compounds in this assay setting.
ERK phosphorylation assays are performed using the following human cell lines: DLD-1 (ATCC CCL-221): human colon cancer with a KRAS G13D mutation;
DLD-1 cells (ATCC CCL-221) are seeded at 50,000 cells per well in/60 μL of RPMI with 10% FBS, non-essential amino acids, pyruvate and glutamax in Greiner TC 384 plates. The cells are incubated for 1 h at room temperature and then incubated overnight in an incubator at 37° C. and 5% CO2 in a humidified atmosphere. 60 nL compound solution (10 mM DMSO stock solution) is then added using a Labcyte Echo 550 device. After a 1 h incubation in the aforementioned incubator, 3 μL Epidermal Growth Factor (EGF, final concentration 50 ng/mL) is added. 10 minutes later the medium is removed, and the cells lysed by addition of 20 μL of 1.6-fold lysis buffer from the AlphaLISA SureFire Ultra pERK1/2 (Thr202/Tyr204) Assay Kit with added protease inhibitors, 100 nM trametinib+100 nM staurosporine. After 20 minutes of incubation at room temperature with shaking, 6 μL of each lysate sample is transferred to a 384-well Proxiplate and analyzed for pERK (Thr202/Tyr204) with the AlphaLISA SureFire Ultra pERK1/2 (Thr202/Tyr204) Assay Kit. 3 μL Acceptor Mix and 3 μL Donor Mix are added under subdued light and incubated for 2 h at room temperature in the dark, before the signal is measured on a Perkin Elmer Envision plate reader using 384 AlphaScreen settings for Proxiplates. Data are fitted by iterative calculation with variable hill slope. The sigmoidal curve slope is fitted using a default fitting curve to ascertain IC50 values.

[2] = molecular target: protein-protein interaction between SOS1 and KRAS G12D (Homo sapiens (Human), UniProt Q07889); assay: KRAS::SOS1 AlphaScreen Binding Assay
Excerpt: KRAS::SOS1 AlphaScreen Binding Assay
Low IC50 values are indicative of high potency of the SOS1 inhibitor compound in this assay setting:
Reagents: • GST-tagged SOS1 (564_1049_GST_TEV_ECO) produced in-house • GST-TEV-SOS1 (564-1049) is purchased from Viva Biotech Ltd. • 6×His-Tev-K-RasG12D(1-169)Avi is purchased from Xtal BioStructures, Inc. (Lot # X129-110) • GDP (Sigma Cat No G7127) • AlphaLISA Glutathione Acceptor Beads (PerkinElmer, Cat No AL109) • AlphaScreen Streptavidin Donor Beads (PerkinElmer Cat No 6760002) • Assay plates: Proxiplate-384 PLUS, white (PerkinElmer, Cat No 6008289)
10 nM (final assay concentration) KRAS G12D, 10 μM (final assay concentration) GDP and 5 nM (final assay concentration) GST-SOS1 are mixed in assay buffer prior to use and kept at room temperature.
AlphaLISA Glutathione Acceptor Beads and AlphaScreen Streptavidin Donor Beads are mixed in assay buffer at a concentration of 10 μg/mL (final assay concentration) each prior to use and kept at room temperature.
Compounds are diluted to a final start concentration of 100 μM and are tested in duplicate. Assay-ready plates (ARPs) are generated using an Access Labcyte Workstation with a Labcyte Echo 550 or 555 accoustic dispenser. For compound a start concentration of 100 μM, 150 nL of compound solution is transferred per well in 11 concentrations in duplicate with serial 1:5 dilutions.
The assay is run using a fully automated robotic system in a darkened room below 100 Lux. 10 μL of KRAS::SOS1 GDP mix is added into columns 1-24 to the 150 nL of compound solution (final dilution in the assay 1:100, final DMSO concentration 1%).
After a 30 minute incubation time 5 μL of bead mix is added into columns 1-23. Plates are kept at room temperature in a darkened incubator. After a further 60 minute incubation, the signal is measured using a PerkinElmer Envision HTS Multilabel Reader using the AlphaScreen specifications from PerkinElmer. Each plate contains the following controls: • diluted DMSO+KRAS::SOS1 GDP mix+bead mix • diluted DMSO+KRAS::SOS1 GDP mix
IC50 values are calculated and analyzed using a 4 parametric logistic model.

[3] = Table 20, KRAS::SOS1 AlphaScreen (SOS1 / KRAS G12D)
[4] = KRAS G12D::SOS1 AlphaScreen, measured without EDTA unless marked with an asterisk

protein-protein interaction between SOS1 and KRAS G12D, sequence (Q07889 564-1049, stated change not applied): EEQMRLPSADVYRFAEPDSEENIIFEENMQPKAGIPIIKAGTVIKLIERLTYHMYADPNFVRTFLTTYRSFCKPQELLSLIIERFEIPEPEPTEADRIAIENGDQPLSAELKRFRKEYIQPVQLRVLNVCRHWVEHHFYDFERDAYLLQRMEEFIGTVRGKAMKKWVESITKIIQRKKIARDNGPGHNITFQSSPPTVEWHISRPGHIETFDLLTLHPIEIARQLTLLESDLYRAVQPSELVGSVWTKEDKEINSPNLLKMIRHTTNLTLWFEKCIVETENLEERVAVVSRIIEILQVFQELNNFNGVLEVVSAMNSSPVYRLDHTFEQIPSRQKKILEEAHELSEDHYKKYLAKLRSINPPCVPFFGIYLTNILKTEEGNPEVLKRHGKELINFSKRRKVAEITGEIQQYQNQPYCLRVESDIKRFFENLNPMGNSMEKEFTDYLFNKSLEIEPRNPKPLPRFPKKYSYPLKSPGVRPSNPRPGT

IC50 [1] [nM]	IC50 [2, 3] [nM]	IC50 [2, 4] [nM]	SMILES
113	3	–	Cc1nc(N[C@H](C)c2cccc(C(F)F)c2C)c2cn(C3(C(F)F)CC3)c(=O)cc2n1 [I-21]
61	5	–	Cc1nc(N[C@H](C)c2cccc(C(F)(F)F)c2C)c2cn(C3(C)CC3)c(=O)cc2n1 [I-37]
96	4	–	Cc1nc(N[C@H](C)c2cccc(C(C)(F)F)c2F)c2cn(C3(C)CC3)c(=O)cc2n1 [I-52]
89	2	–	Cc1nc(N[C@H](C)c2cccc3c2CCC3(F)F)c2cn(C3(C(F)F)CC3)c(=O)cc2n1 [I-58]
113	3	–	Cc1nc(N[C@H](C)c2cccc3c2CCC3(F)F)c2cn(C34CC(C3)C4)c(=O)cc2n1 [I-59]
95	1	–	Cc1nc(N[C@H](C)c2cccc(C(F)(F)CO)c2F)c2cn(C34CCC(CC3)C4)c(=O)cc2n1 [I-61]
88	3	–	C[C@@H](Nc1ncnc2cc(=O)n(C34CCC(F)(CC3)CC4)cc12)c1cccc(C(F)F)c1F [I-73]
113	–	4	C[C@@H](Nc1ncnc2cc(=O)n(C34CC(C3)C4)cc12)c1cccc2c1CCC2(F)F [I-106]
–	–	20	Cc1nc(N[C@H](C)c2cccc(C(F)F)c2F)c2cn([C@@]3(C(F)(F)F)CCOC3)c(=O)cc2n1 [I-118]
–	–	6	Cc1nc(N[C@H](C)c2cccc(C(F)F)c2F)c2cn(C34CCC(CC3)CC4)c(=O)cc2n1 [I-120]
93	–	5	Cc1nc(N[C@H](C)c2cccc(C(F)F)c2F)c2cn(C34CCC(F)(CC3)CC4)c(=O)cc2n1 [I-121]
85	–	2	Cc1nc(N[C@H](C)c2cccc(C(F)F)c2C)c2cn(C34CCC(C(=O)N(C)C)(CC3)CC4)c(=O)cc2n1 [I-124]
104	–	5	Cc1nc(N[C@H](C)c2cccc(C(F)F)c2C)c2cn(C3(C)CC3)c(=O)c(C)c2n1 [I-157]
–	–	2	Cc1nc(N[C@H](C)c2cccc3c2CCC3(F)F)c2cn(C34CCN(CC3)C4)c(=O)c(C)c2n1 [I-160]
–	–	13	Cc1c(=O)n(C2(C(F)(F)F)CC2)cc2c(N[C@H](C)c3cccc(C(F)F)c3F)ncnc12 [I-164]
–	–	9	Cc1c(=O)n(C2(C)CC2)cc2c(N[C@H](C)c3cccc(C(C)(F)F)c3F)ncnc12 [I-174]
–	–	13	Cc1c(=O)n(C2(CF)CC2)cc2c(N[C@H](C)c3cccc(C(C)(F)F)c3F)ncnc12 [I-175]
120	–	10	Cc1c(=O)n(C23CC(F)(C2)C3)cc2c(N[C@H](C)c3cccc(C(C)(F)F)c3F)ncnc12 [I-176]
91	–	2	Cc1c(=O)n(C23CCC(CC2)C3)cc2c(N[C@H](C)c3cccc4c3CCC4(F)F)ncnc12 [I-177]

Second part, the molecule before the results:

SMILES	IC50 [1] [nM]	IC50 [2, 3] [nM]	IC50 [2, 4] [nM]
Cc1nc(N[C@H](C)c2cccc(C(F)F)c2C)c2cn(C3(C)CCC3)c(=O)cc2n1 [I-23]	111	4	–
Cc1nc(N[C@H](C)c2cccc(C(F)(F)F)c2C)c2cn(C3(CF)CC3)c(=O)cc2n1 [I-38]	33	–	–
Cc1nc(N[C@H](C)c2cccc(C(F)(F)F)c2C)c2cn(C3(C(F)(F)F)CC3)c(=O)cc2n1 [I-39]	62	18	–
Cc1nc(N[C@H](C)c2cccc3c2OCC3(F)F)c2cn(C3(C(F)F)CC3)c(=O)cc2n1 [I-102]	67	4	–
Cc1nc(N[C@H](C)c2cccc3c(F)coc23)c2cn(C3(C(F)F)CC3)c(=O)cc2n1 [I-103]	70	5	–
C[C@@H](Nc1ncnc2cc(=O)n(C3(C)CC3)cc12)c1cccc2c1CCC2(F)F [I-104]	87	–	4
Cc1nc(N[C@H](C)c2cccc(C(F)(F)F)c2)c2cn(C3(C)CCOCC3)c(=O)cc2n1 [I-112]	–	–	13
Cc1nc(N[C@H](C)c2cccc(C(F)(F)F)c2)c2cn(C3(C)CCCOC3)c(=O)cc2n1 (some centres unmarked) [I-113]	–	–	39
Cc1nc(N[C@H](C)c2cccc(C(F)(F)F)c2)c2cn(C3(C)CCN(C)CC3)c(=O)cc2n1 [I-114]	–	–	26
Cc1nc(N[C@H](C)c2cccc(C(F)(F)F)c2)c2cn(C34CCC(CC3)C4)c(=O)cc2n1 [I-115]	–	–	10
Cc1nc(N[C@H](C)c2cccc(C(F)F)c2F)c2cn(C3(C(F)(F)F)CCOC3)c(=O)cc2n1 (some centres unmarked) [I-117]	–	–	9
Cc1nc(N[C@H](C)c2cccc(C(F)F)c2F)c2cn([C@]3(C(F)(F)F)CCOC3)c(=O)cc2n1 [I-119]	70	–	5
Cc1nc(N[C@H](C)c2cccc(C(F)F)c2F)c2cn(C34CCC(O)(CC3)CC4)c(=O)cc2n1 [I-122]	–	–	3
Cc1nc(N[C@H](C)c2cccc(C(F)(F)CO)c2F)c2cn(C34CCC(CC3)CC4)c(=O)cc2n1 [I-130]	38	–	1
Cc1nc(N[C@H](C)c2cccc(C(F)F)c2F)c2cn(C3(C)CC3)c(=O)c(C)c2n1 [I-155]	–	–	5
Cc1nc(N[C@H](C)c2cccc(C(F)F)c2F)c2cn(C34CCC(O)(CC3)CC4)c(=O)c(C)c2n1 [I-156]	57	–	4
Cc1c(=O)n(C2(CF)CC2)cc2c(N[C@H](C)c3cccc(C(F)F)c3F)ncnc12 [I-162]	–	–	7
Cc1c(=O)n(C2CC23CC3)cc2c(N[C@H](C)c3cccc(C(F)F)c3F)ncnc12 (some centres unmarked) [I-167]	–	–	36
Cc1c(=O)n([C@H]2C[C@H](F)C2)cc2c(N[C@H](C)c3cccc(C(F)F)c3F)ncnc12 [I-168]	–	–	9
Cc1c(=O)n(C23CCC(F)(CC2)CC3)cc2c(N[C@H](C)c3cccc(C(F)F)c3F)ncnc12 [I-171]	93	–	6
Cc1c(=O)n(C23CC(F)(C2)C3)cc2c(N[C@H](C)c3cccc(C(F)(F)C(C)(C)O)c3F)ncnc12 [I-178]	–	–	5
